Where a name gives a salt, the structure may show the parent alone. Read-outs that look alike come from different tables or passages of the source. Where only a bound is given, the exact number is not on record here.

This is an account of results in US11028090B2 (Dong Wha Pharm. Co., Ltd., priority 2017, dated 2021).

In the assay the target is BRD4 (BD1+BD2) bromodomain (Homo sapiens (Human), UniProt O60885). Nature of the assay: BRD4 binding inhibition (AlphaScreen, GST-BRD4 vs tetraacetylated histone H4 peptide). The procedure, abridged:
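AlphaScreen read after 30 min dark incubation at room temperature with glutathione acceptor/streptavidin donor beads (10 μg/ml each). The beads were added to compound plus 100 nM biotin-H4 (K5,8,12,16-acetyl) peptide and 100 nM GST-BRD4 BD1+BD2 in pH 7.4 HEPES/Tween/BSA/DTT buffer.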

Where [1] appears, read: GST-BRD4 (BD1+BD2) / biotinylated acetyl-histone H4 (Lys5,8,12,16) peptide, read-out: IC50, BRD4 binding inhibition.
Where [2] appears, read: GST-BRD4 (BD1+BD2) vs biotinylated acetyl-histone H4 peptide, AlphaScreen, read-out: BRD4 IC50.

On to `COc1cc2nc(NCCCCNC(=O)C(C)(C)C)c3nnc(C)n3c2cc1C(F)(F)F` [Example 477, N-[4-(7-methoxy-1-methyl-8-trifluoromethyl-[1,2,4]triazolo[4,3-a]quinoxaline-4-ylamino)-butyl]-2,2-dimethyl-propionamide], for which the half-maximal inhibitory concentration (IC50) by setting is: under setting [1], not above 50 nM; under setting [2], 20 nM.

With `COc1cc2nc(NCCCCNC(=O)[C@H](O)C(C)C)c3nnc(C)n3c2cc1C(F)(F)F` [Example 478, 2-(R)-hydroxy-N-[4-(7-methoxy-1-methyl-8-trifluoromethyl-[1,2,4]triazolo[4,3-a]quinoxaline-4-ylamino)-butyl]-3-methyl-butyramide], the half-maximal inhibitory concentration (IC50) was not above 50 nM under setting [1] and 44 nM under setting [2].

As to `COc1cc2nc(NCCCCNC(=O)c3ccccc3Cl)c3nnc(C)n3c2cc1C(F)(F)F` [Example 481, 2-chloro-N-[4-(7-methoxy-1-methyl-8-trifluoromethyl-[1,2,4]triazolo[4,3-a]quinoxaline-4-ylamino)-butyl]-benzamide], under setting [2], the IC50 was determined as 51 nM.

On to `COc1cc2nc(NCCCCNC(=O)NC3CCCCC3)c3nnc(C)n3c2cc1C(F)(F)F` [Example 482, 1-cyclohexyl-3-[4-(7-methoxy-1-methyl-8-trifluoromethyl-[1,2,4]triazolo[4,3-a]quinoxaline-4-ylamino)-butyl]-urea], for which the IC50 is, setting by setting: under setting [1], not above 50 nM; under setting [2], 20 nM.

Take `COCCOc1cc2c(cc1OC)nc(NCCCCNC(=O)CC(C)C)c1nnc(C)n12` [Example 485, N-{4-[7-methoxy-8-(2-methoxy-ethoxy)-1-methyl-[1,2,4]triazolo[4,3-a]quinoxaline-4-ylamino]-butyl}-3-methyl-butyramide]: the IC50 under setting [2] was 59 nM.

Turning to `COc1cc2nc(NCCCCNC(=O)CC(C)C)c3nnc(C)n3c2c(OC)c1OC` [Example 488, 3-methyl-N-[4-(7,8,9-trimethoxy-1-methyl-[1,2,4]triazolo[4,3-a]quinoxaline-4-ylamino)-butyl]-butyramide], the IC50 is not above 50 nM under setting [1] and 35 nM under setting [2].

For the compound `CCC(C)CC(=O)NCCCCNc1nc2c(OC)cc(OC)c(OC)c2n2c(C)nnc12` (stereo not drawn) [Example 489, 3-methyl-pentanoic acid-[4-(6,8,9-trimethoxy-1-methyl-[1,2,4]triazolo[4,3-a]quinoxaline-4-ylamino)-butyl]-amide], the IC50 reads like this: under setting [1], not above 50 nM; under setting [2], 30 nM.

Consider `Cc1nnc2c(NCCCCN)nc3cc(N4CCOCC4)ccc3n12` [Example 498, N^1-(1-methyl-7-morpholine-4-yl-[1,2,4]triazolo[4,3-a]quinoxaline-4-yl)-butane-1,4-diamine dihydrochloride], for which the half-inhibitory concentration (IC50) under setting [2] came to 98 nM.

For the compound `Cc1nnc2c(NCCCCNC(=O)[C@@H](NC(=O)[C@H](C)O)C(C)C)nc3cc(N4CCOCC4)ccc3n12` [Example 504, (S)-2-(2-(S)-hydroxy-propionylamino)-3-methyl-N-[4-(1-methyl-7-morpholine-4-yl-[1,2,4]triazolo[4,3-a]quinoxaline-4-ylamino)-butyl]-butyramide hydrochloride], the IC50 runs as follows: under setting [1], not above 50 nM; under setting [2], 34 nM.

`Cc1nnc2c(NCCCCNC(=O)[C@@H](F)C(C)C)nc3cc(N4C[C@@H](C)O[C@@H](C)C4)ccc3n12` [Example 511, N-{4-[7-(2,6-dimethyl-morphonyl-4-yl)-1-methyl-[1,2,4]triazolo[4,3-a]quinoxaline-4-ylamino]-butyl}-2-(S)-fluoro-3-methyl-butyramide]: the 50% inhibitory concentration (IC50) is, setting by setting: under setting [1], not above 50 nM; under setting [2], 34 nM.

With `Cc1nnc2c(NCCCCNC(=O)CC(C)C)nc3cc(N4CCSCC4)ccc3n12` [Example 523, 3-methyl-N-[4-(1-methyl-7-thiomorpholine-4-yl-[1,2,4]triazolo[4,3-a]quinoxaline-4-ylamino)-butyl]-butyramide], under setting [2], the IC50 is 54 nM.
